Data set [1] concerns primary human melanocytes. Nature of the data set: Intracellular melanin content of primary human melanocytes with NNT inhibitors. In kind it is cell-based. Particulars: FIG. 10D. The text has this:
Primary human melanocytes were isolated from normal discarded foreskins and were established in TIVA medium as described previously (Khaled et al., 2010) or in Medium 254 (Life Technologies, #M254500) (Allouche et al., 2015). Human melanoma cell line UACC257 (sex unspecified) was obtained from the National Cancer Institute (NCI), Frederick Cancer Division of Cancer Treatment and Diagnosis (DCTD) Tumor Cell Line Repository. SK-MEL-30 ([…]) human melanoma cell line was from Memorial Sloan Kettering Cancer Center. Both melanoma cell lines have been authenticated by our lab using ATCC's STR profiling service. UACC257 and SK-MEL-30 cells were cultured in DMEM and RPMI medium (Life Technologies, #11875119) respectively, supplemented with 10% fetal bovine serum and 1% penicillin/streptomycin/L-glutamine in a humidified atmosphere of 95% air and 5% CO2 at 37° C.
(§1) In vitro culture with NNT inhibitors: 2,3-Butanedione 97% (2,3 BD) (Sigma Aldrich, #B85307) (1 μM, 10 μM, 100 μM, 2 mM), N,N-Dicyclohexylcarbodiimide (DCC) (Sigma Aldrich, #D80002) (1 mM, 2 mM, 10 mM), and Palmitoyl coenzyme A lithium salt (Sigma Aldrich, #P9716) (10 μM, 2 mM) were reconstituted with DMSO (American Type Culture Collection, 4-X).
(§2) Melanin quantification: Equal numbers of cells were plated in 6-well plates. The cells were then harvested 72-96 hours post siRNA or NNT inhibitors compounds, as indicated in the legends, pelleted, washed in PBS and counted. 10^6 cells were used for measurement of protein concentration with the Pierce BCA protein assay (Thermo Fisher Scientific, #23225) and 10^6 cells were resuspended in 60 μl of 1 N NaOH solution and incubated at 60° C. for 2 h or until the melanin was completely dissolved. After cooling down to room temperature, samples were centrifuged at 500×g for 10 min and the supernatants were loaded onto a 96-well plate. The melanin content was determined by measuring the absorbance at 405 nm on an Envision plate reader, compared with a melanin standard (0 to 50 μg/ml; Sigma Aldrich, #M8631). Melanin content was expressed as micrograms per milligram of protein.

The subject of another data set is zebrafish melanocytes. Kind of data set: Chemical treatment of zebrafish, melanocytic brightness. It is filed as in vivo. Particulars: 24 hours, 100 μM 2,3BD or 50 μM DCC. How it is done: Wildtype Tübingen zebrafish were placed in a 24 well plate at 72 hours post-fertilization, with 10 larvae per well for a total twenty larvae per condition. Larvae were treated for 24 hours with either 2,3BD (1 μM, 10 μM, 100 μM, 1 mM; Sigma Aldrich, #B85307), DCC (1 μM, 10 μM, 50 μM, 100 μM; Sigma Aldrich, #D80002), or DMSO (1:500) in E3 embryo medium. At 4 days post fertilization, larvae were imaged using a Nikon SMZ18 Stereomicroscope. Melanocytes from at least 5 zebrafish embryos of each group for each experiment were analyzed using the FIJI software enabling pixel-based color quantification.

A further data set deals with murine Melan-A cells. Nature of the data set: Melanin content of Melan-A cells with NNT inhibitors. It is filed as cell-based, mouse. Particulars: 2 mM, FIG. 3A. Here is the method: Murine Melan-A (Bennett et al., 1987) cells were obtained from the Wellcome Trust Functional Genomics Cell Bank. Melan-A cells were grown in RPMI 1640 supplemented with 10% FBS or FetalPlex (Gemini Bio-Products, #100-602), 100,000 U/L penicillin, 100 mg/L streptomycin sulphate, 100× Glutamax, and 200 nM TPA.
as §1, §2

The next data set relates to primary melanocytes. Nature of the data set: Cell viability of primary melanocytes, different doses. In kind it is cell-based, human. To be noted: FIG. 10C. How it is done:
Cell viability assay: Human melanoma cell lines and isolated primary cultured human melanocytes were propagated and tested in early passage (Passages 7 to 9). The effects of NNT inhibitors (2,3BD, DCC, and Palmitoyl coenzyme A lithium salt) on cell viability were evaluated by the CellTiter-Glo Luminescent Cell Viability Assay (Promega, #G7570) and measurement of luminescence was performed on an EnVision 2104 Multilabel Reader (PerkinElmer). Human melanoma cell lines and primary melanocytes were plated on 96-well white plates (10,000 cells/well) and were treated with the NNT inhibitors at the indicated concentrations for 24 h.

Results on 1 compound are retold here after US20240307283A1, “COMPOSITIONS AND METHODS FOR DECREASING PIGMENTATION” (The General Hospital Corporation, priority 2021, published 2024).

For the compound `CC(=O)C(C)=O` [2,3BD, 2,3-Butanedione], the intracellular melanin content result in data set [1] (2.3 BD 2 mM for 72 hours) was “significantly increased the intracellular melanin content”. In data set [1] (siNNT plus 2,3 BD), the “melanin on simultaneous treatment with siNNT” value is given as “did not further increase the melanin”. Also, the “darkening of zebrafish embryos (melanocytic brightness)” value in the data set on zebrafish melanocytes is “significant darkening”. Further, in the data set on murine Melan-A cells, the melanin content entry is listed as “increased melanin content”. Besides, in the data set on primary melanocytes (different doses, relative to vehicle), the cell viability entry is recorded as “no impacts on cell viability”. Moreover, the in vitro toxicity result with primary melanocytes (doses up, primary melanocytes) is recorded as “no significant toxicity”.
